From patent US12708113B2, “Herbicidal compositions and methods of use thereof” (Valent U.S.A. LLC, priority 2018, dated 2026)

Test: Metribuzin solubility in salt solutions
Type: physicochemical
Conditions: ammonium sulfate, ammonium acetate and potassium citrate tribasic monohydrate solutions; FIG. 1
Procedure: Metribuzin is partially soluble in water. Because of its partial solubility metribuzin grows crystals in aqueous solutions. It is a discovery of the present invention that, if water solubility of metribuzin is lowered, then crystal growth is inhibited or reduced. To determine if salts could lower the water solubility of metribuzin, metribuzin was added to the saturation point to several concentrations of ammonium sulfate, ammonium acetate and potassium citrate tribasic monohydrate solutions. Results can be seen in FIG. 1.

CSc1nnc(C(C)(C)C)c(=O)n1N [metribuzin, Metribuzin]
water solubility of metribuzin versus salt concentration: negatively correlated
